Experimental data as given in patent US20110212913A1, “THERAPEUTIC COMPOSITIONS COMPRISING PHENOLIC ACIDS FOR TREATING CONDITIONS RELATED TO INAPPROPRIATE PLATELET AGGREGATION” (PROVEXIS NATURAL PRODUCTS LIMITED, priority 2008, published 2011).
In brackets after ≈: the same amount, converted by molar mass.

Experiments:
Assay type in all cases: cell-based, human
[1] = system: platelet aggregation in platelet-rich plasma, agonist ADP; test: ADP-induced platelet aggregation in platelet-rich plasma (aggregometer); details: ADP 10 μmol/L; for IC50: Homo sapiens, Platelet
Description: (§1) The experimental protocol described below was devised to determine the IC50 values of compounds isolated as described in 1.1.3. Crude bioassays to evaluate inhibition of platelet aggregation in vitro were performed on some crude extracts (data not shown) to help select fine fractions/compounds identified by HPLC for functional activity. This approach was considered necessary to avoid the need to assay each and ever compound (the would be thousands) in the fruit extracts.
(§2) An IC50 value represents the amount of a compound, in mg, required to inhibit by 50% the platelet aggregation induced under standardised conditions in 1 mL platelet-rich plasma, in comparison with control samples.
(§3) Blood for in vitro studies was collected from drug-free, healthy human volunteers, both male and female, aged 18-60 years, with normal platelet function. Subjects declared that they had not consumed drugs or supplements known to affect platelet function for a minimum of 10 days before providing a blood sample. Blood was collected after single venepuncture to an antecubital vein through siliconized needles into plastic citrated blood collection tubes (Sarstedt Monovettes, final concentration sodium citrate, 13 mmol/L). All blood was maintained at 37° C. from the time of blood sampling.
(§4) Platelet-rich plasma (PRP) was obtained by centrifugation of citrated blood for 15 minutes at 200×g, and was adjusted with platelet-poor plasma to a standard platelet number of 320±20×10^9/L prior to use. PRP was used for platelet function measurements within two hours.
(§5) The following agonists were used for platelet function measurements. Adenosine diphosphate (ADP), final concentration 10 μmol/L; collagen, final concentration 5 mg/L; arachidonic acid, final concentration […] (all from Helena Biosciences, Sunderland, UK); thrombin receptor-activating peptide (TRAP), final concentration […] (Sigma-Aldrich, Poole, UK). Agonists were prepared from stock solutions immediately before use, diluting into warmed physiological saline (0.9% NaCI).
(§6) Individual platelet inhibitors were prepared at a concentration of between 500 g/L and 100 g/L in either physiological saline, ultra-pure methanol or ultra-pure DMSO (Sigma-Aldrich, Poole, UK) and stored frozen until required. Stock solutions were then diluted with physiological saline immediately prior to use.
(§7) 450 μL PRP was incubated with 50 μL diluted inhibitor solution at 37° C. for 10 minutes, in low-retention epindorrfs. Inhibitor solutions were diluted such that the final concentration of methanol or DMSO in the PRP sample never exceeded 2%. Suitable control samples, containing 50 μL physiological saline matched for methanol or DMSO content as appropriate, were incubated simultaneously. For each inhibitor compound, 5 incubation concentrations were used; final concentrations of 0.05 mg/mL, 0.10 mg/mL, 1.00 mg/mL, 5.00 mg/mL and 10 mg/mL were used as standard.
(§8) After incubation with platelet inhibitors, PRP samples were transferred to glass cuvettes and the extent of aggregation induced by either ADP, collagen, TRAP or arachidonic acid was monitored over 10 minutes on a platelet aggregometer (PACKS 4, Helena Biosciences, Sunderland, UK). A control sample was run with each sample set. From the aggregation curves generated, the area under the curve was calculated for each PRP sample, and the inhibition of aggregation achieved at each inhibitor concentration was calculated by comparing the area under the curve for these PRP samples with that of the control sample. The inhibition of aggregation was expressed as % inhibition, compared to control, and from the 6 data points obtained per inhibitor compound, a dose-response curve was constructed. This curve was then used to predict the IC50 value for that inhibitor compound, as shown in 1.2, Results, and FIG. 1.
(§9) For each blood sample obtained, 6-point dose-response curves for 2 different inhibitory compounds could be generated. […]

[2] = system: platelet aggregation in platelet-rich plasma, agonist arachidonic acid; test: Arachidonic acid-induced platelet aggregation in platelet-rich plasma (aggregometer); details: arachidonic acid 500 U/L; for IC50: Homo sapiens, Platelet
Description: as §1, §2, §3, §4, §5, §6, §7, §8, §9

[3] = system: platelet aggregation in platelet-rich plasma, agonist collagen; test: Collagen-induced platelet aggregation in platelet-rich plasma (aggregometer); details: collagen 5 mg/L; for IC50: Homo sapiens, Platelet
Description: as §1, §2, §3, §4, §5, §6, §7, §8, §9

[4] = system: platelet aggregation in platelet-rich plasma, agonist thrombin receptor-activating peptide (TRAP); test: TRAP-induced platelet aggregation in platelet-rich plasma (aggregometer); details: TRAP 25 nmol/L; for IC50: Homo sapiens, Platelet
Description: as §1, §2, §3, §4, §5, §6, §7, §8, §9

[5] = Table 4, compounds from sources other than tomatoes, mg per 1 mL PRP
[6] = Table 3, mg needed for 50% inhibition in 1 mL PRP, compounds isolated from tomato extract

Molecule	IC50 [1, 5] [mg/mL]	IC50 [2, 5] [mg/mL]	IC50 [3, 5] [mg/mL]	IC50 [4, 5] [mg/mL]	also measured
COc1cc(C(=O)O)cc(OC)c1O [Syringic acid]	37.2 (≈ 188 mM)	22.5 (≈ 113 mM)	30.8 (≈ 155 mM)	28.3 (≈ 143 mM)	
O=C(O)c1cc(O)c(O)c(O)c1 [Gallic acid]	20.2 (≈ 119 mM)	14.4 (≈ 84.9 mM)	14.4 (≈ 84.5 mM)	18.9 (≈ 111 mM)	
C[C@@H]1O[C@@H](Oc2c(-c3ccc(O)c(O)c3)oc3cc(O)cc(O)c3c2=O)[C@H](O)[C@H](O)[C@H]1O [Quercitrin]	> 50	12 (≈ 26.8 mM)	> 50	16 (≈ 35.6 mM)	
O=c1c(O)c(-c2ccc(O)c(O)c2)oc2cc(O)cc(O)c12 [Compound 30, Quercetin]					IC50 [1, 6]: > 50 mg/mL; IC50 [3, 6]: > 50 mg/mL
O=C1C[C@@H](c2ccc(O)cc2)Oc2cc(O)cc(O)c21 [Compound 32, Naringenin]					IC50 [1, 6]: > 50 mg/mL; IC50 [3, 6]: > 50 mg/mL
OC[C@H]1O[C@@H](n2cnc3c(O)ncnc32)[C@H](O)[C@@H]1O [Inosine]	3.5 (≈ 13 mM)		9.3 (≈ 34.7 mM)	> 50	
Quercetin-3-O-glycoside [Compound 23]					IC50 ADP [1, 6]: 25.18 mg; IC50 AA [2, 6]: 0.19 mg; IC50 Collagen [3, 6]: 28.43 mg; IC50 TRAP [4, 6]: 12.06 mg
O=c1c(O)c(-c2cc(O)c(O)c(O)c2)oc2cc(O)cc(O)c12 [Myricetin]	22.1 (≈ 69.6 mM)	0.22 (≈ 0.691 mM)	24.6 (≈ 77.3 mM)	12.9 (≈ 40.6 mM)	
C[C@@H]1O[C@@H](OC[C@H]2O[C@@H](Oc3c(-c4ccc(O)c(O)c4)oc4cc(O)cc(O)c4c3=O)[C@H](O)[C@@H](O)[C@@H]2O)[C@H](O)[C@H](O)[C@H]1O [Compound 27, Rutin]					IC50 [2, 6]: 0.41 mg/mL (≈ 0.672 mM)
O=c1cc(-c2ccc(O)c(O)c2)oc2cc(O)cc(O)c12 [Luteolin]	> 50	5.18 (≈ 18.1 mM)	> 50	26.2 (≈ 91.5 mM)	
O=c1c(O)c(-c2ccc(O)cc2)oc2cc(O)cc(O)c12 [Compound 31, Kaempferol]					IC50 [1, 6]: > 50 mg/mL; IC50 [3, 6]: > 50 mg/mL
O=C(O)/C=C/c1ccccc1O [o-Coumaric acid]	32.2 (≈ 196 mM)	9.48 (≈ 57.7 mM)	28.9 (≈ 176 mM)	17.4 (≈ 106 mM)	
Nc1nc2c(ncn2[C@@H]2O[C@H](COP(=O)(O)O)[C@@H](O)[C@H]2O)c(=O)[nH]1 [Guanosine 5′-monophosphate]	0.1 (≈ 0.275 mM)	0.36 (≈ 0.991 mM)	0.31 (≈ 0.853 mM)	20.1 (≈ 55.4 mM)	
Naringin [Compound 26]					IC50 ADP [1, 6]: 28.1 mg; IC50 AA [2, 6]: 0.31 mg; IC50 Collagen [3, 6]: 29.55 mg; IC50 TRAP [4, 6]: 9.13 mg
O=C(O)C=Cc1ccccc1 [Compound 22, Cinnamic acid]	26.1 (≈ 176 mM)	16.1 (≈ 109 mM)	8.76 (≈ 59.1 mM)	18.2 (≈ 123 mM)	IC50 [2, 6]: 0.22 mg/mL (≈ 1.48 mM)
Nc1ncnc2c1ncn2[C@@H]1O[C@H](CO)[C@@H](O)[C@H]1O [Compound 2, Adenosine]					IC50 [1, 6]: 0.4 mg/mL (≈ 1.5 mM); IC50 [3, 6]: 0.82 mg/mL (≈ 3.07 mM); IC50 [4, 6]: > 50 mg/mL
Nc1nc2c(ncn2[C@@H]2O[C@H](CO)[C@@H](O)[C@H]2O)c(=O)[nH]1 [Compound 4, Guanosine]					IC50 [1, 6]: 0.25 mg/mL (≈ 0.883 mM); IC50 [2, 6]: 0.91 mg/mL (≈ 3.21 mM); IC50 [3, 6]: 0.53 mg/mL (≈ 1.87 mM)
COc1cc(/C=C/C(=O)O)cc(OC)c1O [Sinapic acid]	26.1 (≈ 116 mM)	24.8 (≈ 110 mM)	24.9 (≈ 111 mM)	30.4 (≈ 135 mM)	
O=c1ccn([C@@H]2O[C@H](CO)[C@@H](O)[C@H]2O)c(=O)[nH]1 [Compound 3, Uridine]					IC50 [4, 6]: > 50 mg/mL
O=C(O)c1ccccc1 [Compound 20, Benzoic acid]					IC50 [1, 6]: 25.1 mg/mL (≈ 206 mM); IC50 [2, 6]: 15.5 mg/mL (≈ 127 mM); IC50 [3, 6]: 17.7 mg/mL (≈ 145 mM); IC50 [4, 6]: 18.2 mg/mL (≈ 149 mM)
Nc1ncnc2c1ncn2[C@@H]1O[C@H](COP(=O)(O)O)[C@@H](O)[C@H]1O [Compound 6, Adenosine 5′-monophospate]					IC50 ADP [1, 6]: 0.12 mg; IC50 AA [2, 6]: 2.41 mg; IC50 Collagen [3, 6]: 0.28 mg; IC50 TRAP [4, 6]: 24.51 mg
Nc1ncnc2c1ncn2[C@@H]1O[C@H](CO)[C@@H](OP(=O)(O)O)[C@H]1O [Compound 5, Adenosine 3′-monophospate]					IC50 ADP [1, 6]: 0.12 mg; IC50 AA [2, 6]: 2.41 mg; IC50 Collagen [3, 6]: 0.28 mg; IC50 TRAP [4, 6]: 24.51 mg
O=C(/C=C/c1ccc(O)c(O)c1)O[C@@H]1C[C@](O)(C(=O)O)C[C@@H](O)[C@H]1O [Compound 14, Chlorogenic acid]					IC50 [1, 6]: 10.1 mg/mL (≈ 28.4 mM); IC50 [2, 6]: 0.77 mg/mL (≈ 2.17 mM); IC50 [3, 6]: 10.1 mg/mL (≈ 28.5 mM); IC50 [4, 6]: 1.1 mg/mL (≈ 3.1 mM)
O=C(O)c1ccc(O)c(O)c1 [Protocatechuic acid]	30.2 (≈ 196 mM)	25.6 (≈ 166 mM)	23.7 (≈ 154 mM)	30.8 (≈ 200 mM)	
